Laboratory results published in US10551384B2, “MTOR kinase mutations and methods of use thereof” (RUTGERS, THE STATE UNIVERSITY OF NEW JERSEY, priority 2016, dated 2020).
Entries after “also recorded” stand apart in the source; their conditions may differ. Where two headings read alike, the source gives them in different places.

Legend:
[1] = system: SW480 colorectal cancer cells carrying L2185A mutant mTOR alleles; experiment: SRB growth assay of SW480 cells carrying L2185A mutant mTOR; format: cell-based, human; settings: various concentrations, 2 day
Method: (§1) (FIG. 5A) SW480 cells carrying homozygous WT mTOR or L2185A mutant alleles were treated with various concentrations of AZD8055, INK-128, OSI-027 and PP242 for 2 day. Growth of SW480 cells was measured by SRB assay. Data represent means±SD in three independent experiments. (FIG. 5B) SW480 cells carrying homozygous WT and L2185A mutant mTOR allele were treated with a single dose of AZD8055 (100 nM), INK-128 (100 nM), OSI-027 (6,000 nM), and PP242 (2,000 nM) for different times. Cell growth was measured by SRB assay. The drug carrier DMSO was used as a control. Data represent means±SD in three independent experiments. (FIG. 5C) SW480 cells carrying homozygous WT and L2185A mutant mTOR were treated with various concentrations of INK-128, OSI-027, AZD8055 and PP242 for 1 hr. The effect on the level of P-S6K, S6K, P-4E-BP1, 4EB-P1, P-AKT and AKT was analyzed by immunoblot. […] The growth of SW480 cells was measured by SRB assay. Data represent means±SD in three independent experiments.
Cancer cell lines were maintained in DMEM or RPMI 1640, supplemented with 10% fetal bovine serum (Invitrogen) and 1% penicillin/streptomycin (Invitrogen). CRISPR/cas9 technology was used to engineer mutant mTOR allele in SW480 colorectal and H460 lung cancer cells. Briefly, The target sequence for mTOR, […] (SEQ ID NO: 3 was designed through the online tool at crispr.mit.edu, and cloned into pSPCas9(BB)-2A-GFP vector (PX458 in Addgene). Genomic mTOR mutation was engineered using a protocol as described (Ran, et al. (2013). Nature protocols 8, 2281-2308) and was confirmed by targeted sequencing.
(§2) Antibodies against tubulin, S6K, phospho-S6K (Thr389), 4E-BP1, phospho-4E-BP1 (Thr37/46), Akt, phospho-Akt (Thr308), and phospho-Akt (Ser473) were purchased from Cell Signaling Technology. […] For drug sensitivity test, cancer cells were seeded in 96-well plates at a density of 2,000 cells per well. 24 hours later, different concentrations of mTOR inhibitors were added in quadruplicate. Cell growth was measured by the sulforhodamine B (SRB) assay as previously described (Vichai, V., and Kirtikara, K. (2006). Nature protocols 1, 1112-1116).

[2] = system: mTORC1 and mTORC2 signaling in SW480 mTOR(L2185A) cells; experiment: mTORC1/mTORC2 signaling immunoblot in SW480 cells carrying L2185A mutant mTOR; format: cell-based, human; settings: various concentrations, 1 hr, immunoblot of P-S6K, P-4E-BP1, P-AKT
Method: as §1, §2

[3] = molecular target: T1, tor2-dg cells expressing TOR2-mTOR (UniProt P32600+P42345, A1929L/A1944S/A1986S/A2056E/A2073S/C1999R/C2085L/C2133A/D1912T/D1918E/D1933G/D1947H/D2096N/DUP2140-2140/E1921Q/E2000I/E2014H/E2032D/E2033D/E2049A/E2059K/E2080D/G1897S/G1954S/G2046K/G2092K/H1915G/H1958L/H1988Q/H2028Y/H2055Y/H2106N/I1939L/I1957L/I1964L/I1973V/I2021V/K1928N/K1993S/K1996E/K2045E/K2066R/K2087N/K2095S/L1923M/L1952I/L1956S/L1995I/L2037Q/L2103I/M2010E/M2011L/M2026Q/M2058L/M2079N/M2089K/M2132S/N1898S/N1899S/N1920T/N1989K/N1992L/N1997K/N2003P/N2071Q/N2093D/P1951Q/Q1937E/Q1959S/Q2007D/Q2063E/Q2072N/Q2082Y/R1890H/R1896E/R1950N/R1966K/R2042H/R2086M/R2110K/R2134H/S1980I/S2112G/S2120T/T1903A/T1948Q/T1962S/T1977M/T1983E/T1984S/T1985L/T2004V/T2068I/T2098N/T2119Q/V1906L/V1919A/V1924H/V1927F/V2019M/V2044T/V2050A/W1916I/Y1913F/Y1967A/Y2038F/Y2074F/Y2125H); experiment: Disc halo assay of tor2-dg cells expressing TOR2-mTOR, with or without antifungal permeability enhancers; format: cell-based, S. cerevisiae; settings: filter discs supplemented with amphotericin B (10 μM), miconazole (50 μM) or caspofungin (50 μM); 37° C., 3 day
T1 construct: fused in frame with mTOR kinase domain (2140-2549 aa); yeast TOR2 N-terminus (1-2080 aa); expressed in transfected cells; host or cells: S. cerevisiae W303 tor2-dg, centromeric plasmid derived from pML40-TOR2
T1 sequence (P32600+P42345 fused with the stated changes): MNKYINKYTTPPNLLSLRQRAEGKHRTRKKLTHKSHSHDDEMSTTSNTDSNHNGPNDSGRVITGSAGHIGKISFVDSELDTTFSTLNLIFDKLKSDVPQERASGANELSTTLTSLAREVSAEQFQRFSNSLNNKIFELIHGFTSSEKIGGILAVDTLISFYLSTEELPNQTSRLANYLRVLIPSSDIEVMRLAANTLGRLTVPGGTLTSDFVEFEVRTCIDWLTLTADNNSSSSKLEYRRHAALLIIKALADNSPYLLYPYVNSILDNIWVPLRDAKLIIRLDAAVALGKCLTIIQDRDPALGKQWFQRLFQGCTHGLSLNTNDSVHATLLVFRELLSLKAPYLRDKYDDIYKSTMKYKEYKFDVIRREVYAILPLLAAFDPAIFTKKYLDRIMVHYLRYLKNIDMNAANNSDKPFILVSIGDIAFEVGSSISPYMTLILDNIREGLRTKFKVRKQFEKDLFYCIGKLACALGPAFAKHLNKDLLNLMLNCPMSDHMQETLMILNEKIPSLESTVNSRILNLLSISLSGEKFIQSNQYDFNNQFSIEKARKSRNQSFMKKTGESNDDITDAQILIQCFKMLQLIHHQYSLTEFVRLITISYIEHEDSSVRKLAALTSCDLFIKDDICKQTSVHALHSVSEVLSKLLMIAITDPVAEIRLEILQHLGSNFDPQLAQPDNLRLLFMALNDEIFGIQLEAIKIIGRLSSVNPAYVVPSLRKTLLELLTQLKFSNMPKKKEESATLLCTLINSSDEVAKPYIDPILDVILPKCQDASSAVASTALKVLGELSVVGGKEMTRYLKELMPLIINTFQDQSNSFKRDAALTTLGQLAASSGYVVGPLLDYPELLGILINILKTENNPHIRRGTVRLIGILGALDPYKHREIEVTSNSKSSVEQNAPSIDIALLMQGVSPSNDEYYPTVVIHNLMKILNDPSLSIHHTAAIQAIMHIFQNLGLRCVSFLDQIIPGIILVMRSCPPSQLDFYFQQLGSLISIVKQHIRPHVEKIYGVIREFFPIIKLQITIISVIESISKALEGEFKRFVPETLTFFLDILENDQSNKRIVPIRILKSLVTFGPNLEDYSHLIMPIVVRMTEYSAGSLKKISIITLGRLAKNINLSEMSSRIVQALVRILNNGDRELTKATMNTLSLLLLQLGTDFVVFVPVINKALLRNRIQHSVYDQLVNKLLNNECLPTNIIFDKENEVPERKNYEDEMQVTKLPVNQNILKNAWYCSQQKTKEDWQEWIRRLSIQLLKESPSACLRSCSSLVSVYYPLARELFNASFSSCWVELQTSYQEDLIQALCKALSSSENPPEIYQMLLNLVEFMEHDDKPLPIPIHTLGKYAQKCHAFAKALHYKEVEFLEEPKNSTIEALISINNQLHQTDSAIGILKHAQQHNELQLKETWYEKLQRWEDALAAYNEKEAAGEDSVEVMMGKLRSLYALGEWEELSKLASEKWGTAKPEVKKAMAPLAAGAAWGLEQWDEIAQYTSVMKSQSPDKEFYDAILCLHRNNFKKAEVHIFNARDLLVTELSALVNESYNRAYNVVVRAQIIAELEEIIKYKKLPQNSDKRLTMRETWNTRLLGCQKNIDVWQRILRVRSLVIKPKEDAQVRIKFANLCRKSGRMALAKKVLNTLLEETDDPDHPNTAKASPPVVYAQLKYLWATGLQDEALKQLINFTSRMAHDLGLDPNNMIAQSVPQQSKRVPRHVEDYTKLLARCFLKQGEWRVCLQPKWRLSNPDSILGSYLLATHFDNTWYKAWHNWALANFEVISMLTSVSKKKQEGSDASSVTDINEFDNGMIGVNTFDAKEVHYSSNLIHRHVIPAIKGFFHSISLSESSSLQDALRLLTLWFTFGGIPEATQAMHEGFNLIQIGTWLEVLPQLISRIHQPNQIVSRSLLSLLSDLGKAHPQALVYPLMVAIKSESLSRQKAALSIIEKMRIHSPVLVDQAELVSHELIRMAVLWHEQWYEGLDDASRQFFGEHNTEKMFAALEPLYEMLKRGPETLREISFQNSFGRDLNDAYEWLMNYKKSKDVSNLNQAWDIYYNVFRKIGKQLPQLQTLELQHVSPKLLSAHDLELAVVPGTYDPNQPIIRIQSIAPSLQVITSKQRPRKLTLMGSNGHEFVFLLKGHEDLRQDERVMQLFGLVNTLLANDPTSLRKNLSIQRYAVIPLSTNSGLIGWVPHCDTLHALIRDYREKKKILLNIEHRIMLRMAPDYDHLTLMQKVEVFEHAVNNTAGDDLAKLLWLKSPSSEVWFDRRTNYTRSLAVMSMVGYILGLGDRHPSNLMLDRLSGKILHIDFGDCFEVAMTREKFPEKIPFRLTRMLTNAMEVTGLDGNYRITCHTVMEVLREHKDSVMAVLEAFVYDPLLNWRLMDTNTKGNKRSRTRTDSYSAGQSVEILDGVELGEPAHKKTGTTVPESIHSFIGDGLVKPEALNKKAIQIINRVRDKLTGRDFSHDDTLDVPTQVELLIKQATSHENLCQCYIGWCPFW
T1 sequence (P41318 whole entry partner): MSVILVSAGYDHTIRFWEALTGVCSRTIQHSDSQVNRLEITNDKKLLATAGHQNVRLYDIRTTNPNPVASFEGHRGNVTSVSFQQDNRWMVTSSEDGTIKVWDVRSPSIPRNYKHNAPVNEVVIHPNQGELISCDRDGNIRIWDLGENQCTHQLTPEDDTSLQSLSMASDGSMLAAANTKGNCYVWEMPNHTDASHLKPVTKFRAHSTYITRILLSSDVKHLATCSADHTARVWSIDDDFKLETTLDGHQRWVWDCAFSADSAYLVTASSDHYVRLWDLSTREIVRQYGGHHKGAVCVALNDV
Method: FIGS. 2A-C. Enhancement of yeast cell permeability to structurally diverse mTOR kinase inhibitors by amphotericin B. (FIG. 2A) tor2-dg cells expressing TOR2-mTOR were spread on synthetic complete (SC)-leucine plate and tested for drug sensitivity by disc halo assay using filter discs containing different mTOR kinase inhibitors supplemented with the drug carrier DMSO or amphotericin B (10 μM). (FIG. 2B) Similar to FIG. 2A except the filter discs were supplemented with miconazole (50 μM). (FIG. 2C) Similar to FIG. 2A except the filter discs were supplemented with caspofungin (50 μM).
(§3) To enhance yeast cell permeability, log phase W303 tort-dg cells were spread evenly on SD-Leu agarose plates. After drying, small sterile filter discs were placed on the surface and 5 μl of indicated mTOR inhibitors or DMSO were applied to each disc with or without adding 5 μl of amphotericin B (10 μM), miconazole (50 μM) or caspofungin (50 μM). Plates were incubated at 37° C. for 3 day. Drug resistance profiles of TOR2-mTOR mutant cells were determined by the spotting assay. For this assay, 10-fold serial dilutions of cells were spotted on SD-leu plates in the presence of indicated mTOR inhibitors with or without amphotericin B (200 nM) and incubated at 37° C. for 3 day.

TOR2-mTOR L2185A mutant = experiment: Yeast spotting assay for drug resistance, TOR2-mTOR L2185A; format: cell-based, S. cerevisiae
Excerpt: (§4) FIGS. 4A-C. […] (FIG. 4A) Scheme of a yeast-based screen for drug-resistant mutations in mTOR kinase domain. mTOR kinase domain is amplified by error-prone PCR to generate randomized mutations, which is then recombined in frame into the TOR2-mTOR plasmid by gap-repair in tort-dg cells, and is selected on SC-leucine minus plates. Replica plating is then made onto SC-leucine plates containing DMSO or mTOR kinase inhibitor for selection of drug resistant clones. (FIG. 4B) tor2-dg cells expressing WT or mutant TOR2-mTOR were serially diluted by 10-fold and assayed for sensitivity to different mTOR kinase inhibitors in the presence of amphotericin B. Vector and TOR2 were used as controls. Drug resistant assay was performed at 37° C. in the presence of amphotericin B (except OSI-027). (FIG. 4C) Systematic mutational analysis of L2185 on drug resistance. tort-dg cells expressing WT or mutant TOR2-mTOR carrying all possible mutations at L2185 were serially diluted by 10-fold and tested for sensitivity to different mTOR kinase inhibitors at 37° C.
as §3

TOR2-mTOR L2185C mutant = experiment: Yeast spotting assay for drug resistance, TOR2-mTOR L2185C; format: cell-based, S. cerevisiae
Excerpt: as §4, §3

TOR2-mTOR L2185D mutant = experiment: Yeast spotting assay for drug resistance, TOR2-mTOR L2185D; format: cell-based, S. cerevisiae; settings: 37° C., with amphotericin B
Excerpt: as §4, §3

TOR2-mTOR L2185N mutant = experiment: Yeast spotting assay for drug resistance, TOR2-mTOR L2185N; format: cell-based, S. cerevisiae; settings: 37° C., with amphotericin B
Excerpt: as §4, §3

TOR2-mTOR L2185G mutant = experiment: Yeast spotting assay for drug resistance, TOR2-mTOR L2185G; format: cell-based, S. cerevisiae; settings: 37° C., with amphotericin B
Excerpt: as §4, §3

[4] = 37° C., amphotericin B present (except OSI-027)

## CC(C)n1nc(-c2cc3cc(O)ccc3[nH]2)c2c(N)ncnc21 [PP242]
[1]
  drug resistance/sensitivity of cell growth, SW480 L2185A vs WT: confers resistance
[2]
  drug resistance of mTORC1 and mTORC2 signaling, SW480 L2185A vs WT: drug-resistant signaling by both mTORC1 and mTORC2

## C[C@@H]1[C@H](O)[C@@H](C)/C=C/C=C/C=C/C=C/C=C/C=C/C=C/[C@H](O[C@@H]2O[C@H](C)[C@@H](O)[C@H](N)[C@@H]2O)C[C@@H]2O[C@](O)(C[C@@H](O)C[C@@H](O)[C@H](O)CC[C@@H](O)C[C@@H](O)CC(=O)O[C@H]1C)C[C@H](O)[C@H]2C(=O)O [Amphotericin B]
[3]
  effect of antifungal drug on yeast sensitivity to mTOR kinase inhibitors: increases yeast sensitivity to most of mTOR kinase inhibitors

## CC[C@H](C)C[C@H](C)CCCCCCCCC(=O)N[C@H]1C[C@@H](O)[C@@H](NCCN)NC(=O)[C@@H]2[C@@H](O)CCN2C(=O)[C@H]([C@H](O)CCN)NC(=O)[C@H]([C@H](O)[C@@H](O)c2ccc(O)cc2)NC(=O)[C@@H]2C[C@@H](O)CN2C(=O)[C@H]([C@@H](C)O)NC1=O [caspofungin]
[3]
  effect of antifungal drug on yeast sensitivity to mTOR kinase inhibitors: fail to do so

## Clc1ccc(COC(Cn2ccnc2)c2ccc(Cl)cc2Cl)c(Cl)c1 (centres unmarked) [miconazole]
[3]
  effect of antifungal drug on yeast sensitivity to mTOR kinase inhibitors: fail to do so

## COc1ccc(-c2ccc3c(N4CCOC[C@@H]4C)nc(N4CCOC[C@@H]4C)nc3n2)cc1CO [AZD8055]
TOR2-mTOR L2185A mutant; [4]
  drug resistance/sensitivity of TOR2-mTOR L2185A mutant yeast: confer resistance; also recorded: conferring resistance
TOR2-mTOR L2185C mutant; [4]
  drug resistance/sensitivity of TOR2-mTOR L2185C mutant yeast: confer resistance; also recorded: conferring resistance
TOR2-mTOR L2185D mutant
  drug resistance of TOR2-mTOR L2185D mutant yeast: moderately resistant
TOR2-mTOR L2185N mutant
  drug resistance of TOR2-mTOR L2185N mutant yeast: moderately resistant
TOR2-mTOR L2185G mutant
  drug resistance of TOR2-mTOR L2185G mutant yeast: moderately resistant
[1]
  drug resistance/sensitivity of cell growth, SW480 L2185A vs WT: confers resistance
[2]
  drug resistance of mTORC1 and mTORC2 signaling, SW480 L2185A vs WT: drug-resistant signaling by both mTORC1 and mTORC2

## COc1ccc(-c2cc3c(C)nc(N)nc3n([C@H]3CC[C@H](OCCO)CC3)c2=O)cn1 [PF-04691502]
TOR2-mTOR L2185A mutant; [4]
  drug resistance/sensitivity of TOR2-mTOR L2185A mutant yeast: confers resistance; also recorded: conferring resistance
TOR2-mTOR L2185C mutant; [4]
  drug resistance/sensitivity of TOR2-mTOR L2185C mutant yeast: confer resistance; also recorded: conferring resistance
TOR2-mTOR L2185D mutant
  drug resistance of TOR2-mTOR L2185D mutant yeast: moderately resistant
TOR2-mTOR L2185N mutant
  drug resistance of TOR2-mTOR L2185N mutant yeast: moderately resistant
TOR2-mTOR L2185G mutant
  drug resistance of TOR2-mTOR L2185G mutant yeast: moderately resistant
[1]
  drug resistance/sensitivity of cell growth, SW480 L2185A vs WT: still sensitive

## CN(C)C1CCN(C(=O)c2ccc(NC(=O)Nc3ccc(-c4nc(N5CCOCC5)nc(N5CCOCC5)n4)cc3)cc2)CC1 [PKI-587]
TOR2-mTOR L2185A mutant
  drug resistance/sensitivity of TOR2-mTOR L2185A mutant yeast: conferring resistance
TOR2-mTOR L2185C mutant
  drug resistance/sensitivity of TOR2-mTOR L2185C mutant yeast: conferring resistance
TOR2-mTOR L2185D mutant
  drug resistance of TOR2-mTOR L2185D mutant yeast: moderately resistant
TOR2-mTOR L2185N mutant
  drug resistance of TOR2-mTOR L2185N mutant yeast: moderately resistant
TOR2-mTOR L2185G mutant
  drug resistance of TOR2-mTOR L2185G mutant yeast: moderately resistant
